The source of these data is ChEMBL document CHEMBL1143017, “Structural assignment of poecillastrins B and C, macrolide lactams from the deep-water Caribbean sponge Poecillastra species” (J Nat Prod, 2007).

The assay is described as follows: Cytotoxicity against human LOX cells. It counts as cell-based.

Bounds are passed on as bounds.

As usually defined, the IC50 is the concentration needed to halve the response being measured. Molecule `COC1/C=C/C=C/CC/C=C/C=C/C(=O)NC(C(O)C(=O)O)C(=O)OC(C(NC(=O)C(C)C(O)CCC(C)C(O)/C(C)=C/C(C)(C)C(O)C(CC(C)C)NC(=O)/C=C/C(C)(C)C(=O)C(C)C(O)C(C)C)C(C)O)C(C)C(O)C/C=C(\C)C(O)C(C)/C=C(\C)C(O)C(C)C(O)CC2CC(C)CC1O2` (configuration not stated) [POECILLASTRIN B] came in with an IC50 of less than 1 µg/mL. As to `COC1/C=C/C=C/CC/C=C/C=C/C(=O)NC(C(O)C(=O)O)C(=O)OC(C(NC(=O)C(C)C(O)CCC(C)C(O)/C(C)=C/C(C)C(O)C(CC(C)C)NC(=O)/C=C/C(C)(C)C(=O)C(C)C(O)C(C)C)C(C)O)C(C)C(O)C/C=C(\C)C(O)C(C)/C=C(\C)C(O)C(C)C(O)CC2CC(C)CC1O2` (configuration not stated) [POECILLASTRIN C], the IC50 was less than 1 µg/mL.
